“And” between values parts separate entries of the source, which are not always exact repeats. Equal values may be shown once.
Tests used:
[1] = tested on: locomotor hyperactivity induced by cocaine and morphine; assay: Locomotor hyperactivity (hypermotility) induced by cocaine and morphine, Videotrack total distance; format: in vivo, rats; settings: for effect on the spontaneous motility of the animal: alone, neboglamine 30 mg/kg, glycine 300 mg/kg i.p.
Protocol: The motor activity was measured with a video camera and recorded using the Videotrack 512 system as described by Garofalo (J. Pharm. Pharmacol. 48: 1290-1297, 1996).
The locomotor activity was recorded for 15 minutes and the total distance covered (in cm) by the animal was recorded by the computer connected to the video camera.

[2] = tested on: locomotor hyperactivity, tolerance and dependency induced by morphine; settings: mice; Shin et al. 2003; cited from earlier work
[3] = tested on: inverse tolerance induced by chronic treatment with morphine; assay: Inverse tolerance (increased sensitivity) induced by chronic treatment with morphine, locomotor activity
[4] = tested on: tolerance and abstinence crisis induced by chronic treatment with diazepam; assay: Elevated zero maze: tolerance and abstinence crisis induced by chronic treatment with diazepam; format: in vivo, rats
Protocol: The experiment was performed in an elevated zero maze in accordance with the procedure described by Shepard et al. (Psychopharmacology 116: 56-64, 1994) with minor changes.
The rat, placed in one of the closed quadrants, had free access to all 4 of the quadrants (2 open and 2 closed) for a period of 5 minutes. A compound with anxiolytic activity produces a percentage increase in the time spent in the free quadrants.
In the acute studies, the compounds were administered via the s.c. route 30 minutes before the experiment, whereas in the tolerance and “withdrawal” experiments, they were administered via the s.c. route twice a day for 7 days and then retested 40 hours after the end of the chronic treatment.

memory and learning = settings: various animal models; Garofalo et al. 1996; cited from earlier work
[5] = substance alone with physiological saline, neboglamine 30 or glycine 300 mg/kg i.p., cocaine 20 or morphine 10 mg/kg s.c., recorded 15 min
[6] = drug = morphine 10 mg/kg s.c., neboglamine 30 or glycine 300 mg/kg i.p. 30 min before
[7] = neboglamine 30 or glycine 300 mg/kg i.p. 30 min before morphine 10 mg/kg s.c.
[8] = neboglamine 30 or glycine 300 mg/kg i.p. 30 min before morphine 10 mg/kg s.c., recorded 15 min
[9] = chronic morphine 10 mg/kg s.c. x 7 days
[10] = acute, s.c. 30 min before, diazepam 5 mg/kg, neboglamine 30 mg/kg
[11] = acute, s.c. 30 min before, diazepam 5 mg/kg, neboglamine 30 mg/kg, 5 min test
[12] = withdrawal (D-W): diazepam for 7 days, retested 40 hours later with physiological saline
[13] = neboglamine 30 mg/kg s.c. x 2 (x7 days) + 30 co-administered with chronic diazepam (D-C) + 5 (D), tolerance
[14] = withdrawal: diazepam and neboglamine for 7 days, retested 40 hours later with physiological saline
[15] = neboglamine 30 mg/kg i.p. 30 min before morphine 10 mg/kg s.c., x 7 days

COC(=O)[C@H]1[C@@H](OC(=O)c2ccccc2)C[C@@H]2CC[C@H]1N2C [Cocaine, cocaine, reference compound]
% increase vs. physiological saline [1, 5]: 75.7%
Total distance (cm) [1, 5]: 5800 cm

NCC(=O)O [Glycine, glycine, reference compound]
inhibition of morphine-induced locomotor hyperactivity, tolerance and dependency [2]: capable of inhibiting the locomotor hyperactivity, tolerance and dependency induced by morphine
effect on the spontaneous motility of the animal [1]: do not significantly alter
% inhibition vs. the drug (D) [1, 6]: 52.5%
% inhibition vs. the drug (D) ([1]; drug = morphine 10 mg/kg s.c., neboglamine 30 or glycine 300 mg/kg i.p. 30 min before, listed as G): 52.5^(2) %
% increase vs. physiological saline [1, 7]: 28.8%
Total distance (cm) [1, 8]: 4250 cm
Total distance (cm) [1, 5]: 2900 cm

CN1CC[C@]23c4c5ccc(O)c4O[C@H]2[C@@H](O)C=C[C@H]3[C@H]1C5 [Morphine, morphine, reference compound]
% increase vs. physiological saline [1, 5]: 60.6%
Total distance (cm) [1, 5]: 5300 cm
% increase vs. physiological saline [3, 9]: 128.6%
Total distance (cm) [3, 9]: 6400 cm
increase in the motor activity by chronic treatment compared with the acute effect of the drug ([3]; chronic vs acute morphine 10 mg/kg s.c.): about 50%

CN1C(=O)CN=C(c2ccccc2)c2cc(Cl)ccc21 [diazepam, reference compound]
% effect vs. controls (saline) [4, 10]: 262.5%
Time (seconds) spent in the open quadrants [4, 11]: 105 s
Time (seconds) spent in the open quadrants ([4]; chronic diazepam (D-C) 5 mg/kg s.c. x 2 (x7 days) + 5 (D), tolerance): 58 s
% effect vs. controls (saline) ([4]; chronic diazepam (D-C) 5 mg/kg s.c. x 2 (x7 days) + 5 (D), tolerance, 5 mg/kg): 145%
% effect vs. controls (saline) [4, 12]: 37.5%
Time (seconds) spent in the open quadrants [4, 12]: 15 s

(S)-4-amino-N-(4,4-dimethylcyclohexyl)glutamic acid [Neboglamine]
% increase vs. physiological saline ([1]; 30 mg/kg i.p. 30 min before cocaine 20 mg/kg s.c.): 9.1%
Total distance (cm) ([1]; 30 mg/kg i.p. 30 min before cocaine 20 mg/kg s.c., recorded 15 min): 3600 cm
effect on the spontaneous motility of the animal [1]: do not significantly alter
% inhibition vs. the drug (D) ([1]; drug = cocaine 20 mg/kg s.c., 30 mg/kg i.p. 30 min before): 88%
% inhibition vs. the drug (D) ([1]; drug = cocaine 20 mg/kg s.c., 30 mg/kg i.p. 30 min before, listed as N): 88.0^(1) %
% inhibition vs. the drug (D) [1, 6]: 77.5%
% inhibition vs. the drug (D) ([1]; drug = morphine 10 mg/kg s.c., neboglamine 30 or glycine 300 mg/kg i.p. 30 min before, listed as N): 77.5^(1) %
% increase vs. physiological saline [1, 7]: 13.6%
Total distance (cm) [1, 8]: 3750 cm
Total distance (cm) [1, 5]: 3150 cm
% effect vs. controls (saline) [4, 10]: 127%
Time (seconds) spent in the open quadrants [4, 11]: 51 s
% effect vs. controls (saline) ([4]; acute, s.c. 30 min before, diazepam 5 mg/kg, neboglamine 30 mg/kg, listed as neboglamine): 127.0%
% effect vs. controls (saline) [4, 13]: 192.5%
Time (seconds) spent in the open quadrants [4, 13]: 77 s
% effect vs. controls (saline) [4, 14]: 110.0%
Time (seconds) spent in the open quadrants [4, 14]: 44 s
% effect vs. controls (saline) ([4]; withdrawal: diazepam and neboglamine for 7 days, retested 40 hours later with physiological saline, listed as neboglamine): 110%
promoting memory and learning (memory and learning): advantageous properties of promoting memory and learning
% increase vs. physiological saline [3, 15]: 37.5%
% inhibition of the hypersensitivity of morphine [3, 15]: 70.8% and 70.8^(1) %
Total distance (cm) [3, 15]: 3850 cm

— patent publication US20100197962A1 (priority 2005, published 2010)
